# According to PubChem BioAssay (NCI):
#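 Grown in 96-well plates, cells were treated for 48 hours with each compound at five concentrations. Insufficient inhibition: endpoint recorded as highest concentration tested. Abbreviation: GI50, concentration required for 50% inhibition of growth. The concentration for full growth arrest is given as TGI.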
# How the values were obtained:
# Assay in all cases: NCI-60 cell line screen, 48 h
# COLO 205 colon = system: COLO 205 colon
# EKVX NSCLC = system: EKVX NSCLC
# HL-60(TB) leukemia = system: HL-60(TB) leukemia
# IGROV1 ovarian = system: IGROV1 ovarian
# KM12 colon = system: KM12 colon
# MALME-3M melanoma = system: MALME-3M melanoma
# MDA-MB-231 breast = system: MDA-MB-231 breast
# SK-OV-3 ovarian = system: SK-OV-3 ovarian
# SNB-19 CNS = system: SNB-19 CNS
# SNB-75 CNS = system: SNB-75 CNS
SMILES,GI50 (COLO 205 colon),TGI (COLO 205 colon),GI50 (EKVX NSCLC),TGI (EKVX NSCLC),GI50 (HL-60(TB) leukemia),TGI (HL-60(TB) leukemia),GI50 (IGROV1 ovarian),TGI (IGROV1 ovarian),GI50 (KM12 colon),TGI (KM12 colon),GI50 (MALME-3M melanoma),TGI (MALME-3M melanoma),GI50 (MDA-MB-231 breast),TGI (MDA-MB-231 breast),GI50 (SK-OV-3 ovarian),TGI (SK-OV-3 ovarian),GI50 (SNB-19 CNS),TGI (SNB-19 CNS),GI50 (SNB-75 CNS),TGI (SNB-75 CNS)
COc1cc(-c2nc3ccccc3s2)ccc1NC(=O)COc1ccc(Cl)cc1,6.45 µM,> 100 µM,8.67 µM,> 100 µM,> 100 µM,> 100 µM,1.14 µM,21.2 µM,3.91 µM,> 100 µM,5.07 µM,> 100 µM,4.98 µM,> 100 µM,36.5 µM,> 100 µM,3.71 µM,19.4 µM,42.9 µM,> 100 µM
C[C@]12CC[C@H](O)C[C@H]1CC[C@@H]1[C@@H]2CC[C@]2(C)[C@@H](C3=CC(=O)OC3)[C@@H](O)C[C@]12O,–,7.18 µM,–,2.78 µM,–,3.45 µM,–,37.3 µM,–,18.2 µM,–,4.23 µM,–,20.1 µM,–,6.73 µM,–,15.5 µM,–,16.7 µM
COC1CCN(C(=O)c2cc(Cc3n[nH]c(=O)c4ccccc34)ccc2F)CC1,> 100 µM,> 100 µM,> 100 µM,> 100 µM,> 85.3 µM,> 100 µM,> 60.4 µM,> 100 µM,> 100 µM,> 100 µM,> 100 µM,> 100 µM,> 100 µM,> 100 µM,> 100 µM,> 100 µM,57.6 µM,> 100 µM,9.12 µM,> 100 µM
Cc1ccc(C(SCC(N)C(=O)O)(c2ccc(C)cc2)c2ccc(C)cc2)cc1 (stereo not drawn),2.14 µM,5.62 µM,4.32 µM,39.4 µM,2.53 µM,8.09 µM,10.3 µM,29.5 µM,2.26 µM,12.4 µM,11.6 µM,26 µM,1.93 µM,7.77 µM,1 µM,15.3 µM,4.97 µM,30.2 µM,6.69 µM,> 38.2 µM
CS(=O)(=O)Nc1ccc(-c2cc(-c3ccccc3)cc(C(N)=O)c2N)cc1,> 25 µM,> 25 µM,> 25 µM,> 25 µM,> 23.4 µM,> 25 µM,> 25 µM,> 25 µM,20.5 µM,> 25 µM,> 25 µM,> 25 µM,> 25 µM,> 25 µM,> 25 µM,> 25 µM,> 25 µM,> 25 µM,8.89 µM,> 25 µM
NC(=O)c1ccc(NN=O)nc1,–,> 100 µM,–,> 100 µM,–,> 100 µM,–,> 100 µM,–,> 100 µM,–,> 100 µM,–,> 100 µM,–,> 100 µM,–,> 100 µM,–,> 100 µM
COc1cc2nc(SCC(=O)Nc3cc(OC)c(OC)c(OC)c3)n(Cc3ccccc3)c(=O)c2cc1OC,15.3 µM,33 µM,5.12 µM,31.1 µM,> 100 µM,> 100 µM,7.34 µM,> 100 µM,> 100 µM,> 100 µM,3.3 µM,> 100 µM,3.73 µM,37.8 µM,2.91 µM,7.26 µM,2.92 µM,18.1 µM,1.57 µM,3.38 µM
O=[N+]([O-])c1ccccc1N/N=C\c1c[nH]c2ccccc12,24.5 µM,> 100 µM,2.49 µM,> 100 µM,5.56 µM,> 100 µM,0.0379 µM,3.92 µM,6.1 µM,> 100 µM,28.8 µM,> 87.1 µM,2.98 µM,20.5 µM,22.4 µM,98 µM,24.9 µM,> 100 µM,4.2 µM,29.8 µM
O=C1c2ccccc2S(=O)(=O)N1CSC(=S)N1CCCCC1,> 100 µM,> 100 µM,> 100 µM,> 100 µM,0.0329 µM,> 100 µM,> 89 µM,> 100 µM,> 55.7 µM,> 100 µM,> 100 µM,> 100 µM,> 100 µM,> 100 µM,> 100 µM,> 100 µM,> 100 µM,> 100 µM,> 100 µM,> 100 µM
Clc1ccc2c(c1)N(c1ncnc3ccc(-c4cnc5[nH]ccc5c4)cc13)CC2,3.21 µM,> 100 µM,0.789 µM,34.4 µM,1.26 µM,> 100 µM,0.304 µM,2.27 µM,1.24 µM,18.6 µM,1.08 µM,19.5 µM,2.01 µM,19.3 µM,4.03 µM,61.4 µM,4.48 µM,35.5 µM,0.776 µM,21.1 µM
NC1CCC(Nc2nc(NCc3ccc(-c4cccs4)nc3)c3ncn(C4CCCC4)c3n2)CC1 (stereo not drawn),0.0169 µM,0.035 µM,0.0426 µM,0.762 µM,0.0206 µM,0.0644 µM,0.0363 µM,1.93 µM,0.0285 µM,0.743 µM,0.122 µM,0.523 µM,0.024 µM,1.59 µM,0.126 µM,4.28 µM,0.0302 µM,3.75 µM,0.016 µM,0.0588 µM
CCOC(=O)n1cc(C2=C(c3cn(C)c4ccccc34)COC2=O)c2ccccc21,0.241 µM,2.41 µM,0.177 µM,> 100 µM,0.124 µM,0.511 µM,0.0564 µM,> 45.8 µM,0.0471 µM,> 100 µM,0.0508 µM,> 100 µM,0.347 µM,> 70.5 µM,1.97 µM,56.8 µM,0.259 µM,> 63.2 µM,0.0248 µM,1.22 µM
COC(=O)[C@]12CC[C@@H](C)[C@H](C)[C@@H]1C1=CC[C@@H]3[C@@]4(C)C(C=O)=C[C@@](C)(COC(C)=O)C4=CC[C@@]3(C)[C@]1(C)CC2,2.34 µM,5.8 µM,4.13 µM,16.1 µM,2.68 µM,6.49 µM,5.51 µM,22.7 µM,3.49 µM,14.9 µM,3.74 µM,15.5 µM,5.74 µM,23.5 µM,18 µM,50.4 µM,5.25 µM,25.6 µM,2.91 µM,19.2 µM
COc1ccc2c(c1)[nH]c(=O)c1c3cc(OC)ccc3cn21,0.0274 µM,0.0923 µM,0.0728 µM,2.67 µM,< 0.01 µM,< 0.01 µM,0.0157 µM,1.18 µM,< 0.01 µM,0.393 µM,0.139 µM,1.88 µM,0.0431 µM,0.985 µM,0.0522 µM,4.2 µM,0.0774 µM,4.32 µM,0.0187 µM,1.61 µM
C[C@H](Nc1ncnc2nc[nH]c12)c1cc2ccc(F)cc2nc1-c1ccccn1,> 100 µM,> 100 µM,> 70.7 µM,> 100 µM,30.3 µM,> 100 µM,20.4 µM,> 100 µM,> 100 µM,> 100 µM,> 87.8 µM,> 100 µM,> 80 µM,> 100 µM,48.3 µM,> 100 µM,> 100 µM,> 100 µM,2.68 µM,60.5 µM
CNC(=O)OCc1c2ccncc2c(C)c2c1[nH]c1ccccc12,–,1.82 µM,–,2.24 µM,–,0.92 µM,–,1.3 µM,–,5.19 µM,–,1.24 µM,–,2.87 µM,–,1.78 µM,–,7.98 µM,–,1.17 µM
CC(C)(C)C(=O)OCOP(=O)(OCOC(=O)C(C)(C)C)C1CC(O)N(O)C1=O (stereo not drawn),8.66 µM,> 100 µM,10.8 µM,> 100 µM,3.44 µM,22.1 µM,2.83 µM,9.72 µM,4.79 µM,> 100 µM,2.82 µM,> 100 µM,3.65 µM,40.9 µM,25.8 µM,> 100 µM,2.37 µM,7.33 µM,19.2 µM,> 100 µM
COc1ccc(C(SCC(N)C(=O)O)(c2ccccc2)c2ccccc2)cc1 (stereo not drawn),0.3 µM,15.8 µM,0.436 µM,> 100 µM,0.136 µM,–,0.443 µM,> 82.3 µM,0.239 µM,21.3 µM,> 43 µM,> 100 µM,0.23 µM,4.72 µM,0.19 µM,> 100 µM,0.0594 µM,> 100 µM,0.447 µM,88.1 µM
c1cc2[nH]ncc2cc1-c1nc2ccc3[nH]ncc3c2c2c1CCCC2,1.36 µM,8.36 µM,1.91 µM,9.15 µM,0.512 µM,3.09 µM,0.541 µM,7.29 µM,0.563 µM,11.5 µM,1.08 µM,4.22 µM,2.67 µM,11.6 µM,0.781 µM,–,2.35 µM,11 µM,0.998 µM,4.36 µM
